Measured values as given in PMC6941952, “A homogeneous bioluminescent immunoassay to probe cellular signaling pathway regulation” (Communications Biology, 2020).
Several values for one entry are separate records, joined by “and”; a condition that tells them apart may be missing. Identical values can stand only once.

Test system: total IκBα
Experiment: NanoBiT cell-based immunoassay, total IκBα in MCF-7 cells
Parameters: species or system human
Conditions: for Average IKB (background subtracted) / Raw data IKB / Subtract reagent background IKB: 30 min, MCF-7, Fig 7a; for Raw data IKB / Subtract reagent background IKB / IKB Raw data / IKB Subtract reagent background: listed as TNF; for IkB Average / IKB Raw data / IKB Subtract reagent background: without CHX; for IkB Average: background subtracted
Experimental: Prior to NanoBiT Cell-Based Immunoassay, 50,000 cells were seeded in 160 µl of complete growth media per well of a 96-well plate and incubated overnight. […] If necessary, the cell culture media were replaced with serum-free media after the cells were stably adherent on the plate and incubated overnight. To treat cells with activators or inhibitors, medium was changed to 30 µl of medium containing inhibitors. If activation of a specific pathway is needed, the cells were stimulated with 10 µl of medium containing activators. To lyse the cells, 10 µl of lysis buffer containing 0.1% digitonin diluted in 1X immunoassay buffer with protease and phosphatase inhibitors was added and the plates were mixed vigorously for 20 min. Then, 50 µl of an antibody mix containing two primary antibodies against the target protein and NanoBiT detecting antibodies (0.3 µl each per well), diluted in 1X immunoassay buffer was added to the lysates. The plates were incubated at 23 °C for 90 min, followed by the addition of 25 µl of Nano-Glo® reagent consisting of Nano-Glo® Luciferase Assay Substrate mixed with 1X immunoassay buffer. Luminescence was measured using a plate-reading luminometer.
Single dose or dose response inhibitor treatments were performed prior to activation of the pathways as follows. For IκBα, the cells were treated in 30 µl medium with IKK16 or MG132 for 60 min before the addition of 10 µl of DMEM containing appropriate concentration of TNFα. To measure phosphorylation of AKT or STAT3, the corresponding NanoBiT immunoassays were developed with MCF-7 or A431 cells, respectively, according the same scheme used to develop the IκBα assay using the primary antibodies for AKT and STAT3 described in the reagents section. […] Treatment with LY294002 was performed in 30 µl medium and cells were incubated for 60 min before the addition of 1 µM Insulin. To measure STAT3 phosphorylation, A431 cells were incubated overnight in DMEM medium without serum. […] After addition of the stimulators, the cells were incubated for additional times as follows. IκBα phosphorylation and degradation analyses required both time courses and single time points as described in figures. […] The NanoBiT immunoassay protocol was followed as described above.
All 96-well assay plates were read using a GloMax® 96 Microplate Luminometer from Promega. The instrument was set to 0.5 s integration time. In order to obtain net change of signal, the reagent background values (signal from the well containing all reagent except primary antibodies) were subtracted from the sample values. To plot and analyze the data, Microsoft Excel and GraphPad Prism® Software were used. IC50 values were determined by using a nonlinear regression fit to a sigmoidal dose response (variable slope).

## TNFα
TNF 0.00038147 ng/ml
  Average IKB (background subtracted): 68883
  Raw data IKB: 80810 and 81860 and 75990
  Subtract reagent background IKB: 70140 and 71190 and 65320
TNF 0.00152588 ng/ml
  Average IKB (background subtracted): 65947
  Raw data IKB: 78690 and 78640 and 72520
  Subtract reagent background IKB: 68020 and 67970 and 61850
TNF 0.00610352 ng/ml
  Average IKB (background subtracted): 63850
  Raw data IKB: 76470 and 76630 and 70460
  Subtract reagent background IKB: 65800 and 65960 and 59790
TNF 0.0244141 ng/ml
  Average IKB (background subtracted): 59300
  Raw data IKB: 73310 and 70780 and 65820
  Subtract reagent background IKB: 62640 and 60110 and 55150
TNF 0.0976562 ng/ml
  Average IKB (background subtracted): 52567
  Raw data IKB: 65850 and 63760 and 60100
  Subtract reagent background IKB: 55180 and 53090 and 49430
TNF 0.390625 ng/ml
  Average IKB (background subtracted): 37353
  Raw data IKB: 46770 and 47240 and 50060
  Subtract reagent background IKB: 36100 and 36570 and 39390
TNF 1.5625 ng/ml
  Average IKB (background subtracted): 21387
  Raw data IKB: 30440 and 30700 and 35030
  Subtract reagent background IKB: 19770 and 20030 and 24360
TNF 6.25 ng/ml
  Average IKB (background subtracted): 12817
  Raw data IKB: 23480 and 22250 and 24730
  Subtract reagent background IKB: 12810 and 11580 and 14060
TNF 25 ng/ml
  Average IKB (background subtracted): 10187
  Raw data IKB: 20190 and 20330 and 22050
  Subtract reagent background IKB: 9520 and 9660 and 11380
TNF 100 ng/ml
  Average IKB (background subtracted): 9587
  Raw data IKB: 19860 and 20090 and 20820
  Subtract reagent background IKB: 9190 and 9420 and 10150
TNF 5 min
  IkB Average: 50908
  IKB Raw data: 65320 and 61760 and 61990 and 62780
  IKB Subtract reagent background: 53265 and 49705 and 49935 and 50725
TNF 10 min
  IkB Average: 31425
  IKB Raw data: 42500 and 40590 and 43600 and 47230
  IKB Subtract reagent background: 30445 and 28535 and 31545 and 35175
TNF 20 min
  IkB Average: 10930
  IKB Raw data: 21120 and 20330 and 22530 and 27960
  IKB Subtract reagent background: 9065 and 8275 and 10475 and 15905
TNF 30 min
  IkB Average: 8948
  IKB Raw data: 19500 and 19660 and 20770 and 24080
  IKB Subtract reagent background: 7445 and 7605 and 8715 and 12025
TNF 40 min
  IkB Average: 12565
  IKB Raw data: 24080 and 23090 and 23770 and 27540
  IKB Subtract reagent background: 12025 and 11035 and 11715 and 15485
TNF 60 min
  IkB Average: 23095
  IKB Raw data: 35230 and 33190 and 36060 and 36120
  IKB Subtract reagent background: 23175 and 21135 and 24005 and 24065
TNF 80 min
  IkB Average: 35000
  IKB Raw data: 46920 and 46230 and 46940 and 48130
  IKB Subtract reagent background: 34865 and 34175 and 34885 and 36075
TNF 100 min
  IkB Average: 40533
  IKB Raw data: 53930 and 50010 and 52000 and 54410
  IKB Subtract reagent background: 41875 and 37955 and 39945 and 42355
TNF 120 min
  IkB Average: 41718
  IKB Raw data: 56260 and 53820 and 52280 and 52730
  IKB Subtract reagent background: 44205 and 41765 and 40225 and 40675
